This note sets out measurements from ChEMBL document CHEMBL4800726, “Data for DCP probe MSC-4381” (2021).

The target in experiment [1] is Monocarboxylate transporter 2/3 (Homo sapiens, UniProt O60669+O95907). The experiment can be described thus: Lactate efflux inhibition assay (RT4). It counts as protein assay.
Experiment [2] addresses T1, 5-hydroxytryptamine receptor 1A (Homo sapiens) (UniProt P08908).
T1 sequence (whole entry): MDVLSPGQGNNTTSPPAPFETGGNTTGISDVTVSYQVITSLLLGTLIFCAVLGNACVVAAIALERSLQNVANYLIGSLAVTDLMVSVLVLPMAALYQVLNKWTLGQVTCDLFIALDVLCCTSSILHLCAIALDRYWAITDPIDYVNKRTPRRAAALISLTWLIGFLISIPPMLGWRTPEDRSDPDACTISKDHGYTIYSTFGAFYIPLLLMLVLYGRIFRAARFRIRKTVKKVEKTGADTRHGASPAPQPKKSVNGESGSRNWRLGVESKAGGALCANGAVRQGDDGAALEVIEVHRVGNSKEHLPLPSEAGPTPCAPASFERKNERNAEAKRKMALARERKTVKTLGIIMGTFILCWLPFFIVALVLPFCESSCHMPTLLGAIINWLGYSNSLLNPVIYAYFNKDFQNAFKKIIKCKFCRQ
Particulars: Compound concentration 10.0 uM; call rule not given here.

The target of experiment [3] is 5-hydroxytryptamine receptor 2A (Homo sapiens) (UniProt P28223). The conditions noted are these: Compound concentration 10.0 uM.
In experiment [4] the target is 5-hydroxytryptamine receptor 2C (Homo sapiens) (UniProt P28335). Particulars: Compound concentration 10.0 uM.
For experiment [5], the target named is T2, 5-hydroxytryptamine receptor 3A (Homo sapiens) (UniProt P46098).
T2 sequence (whole entry): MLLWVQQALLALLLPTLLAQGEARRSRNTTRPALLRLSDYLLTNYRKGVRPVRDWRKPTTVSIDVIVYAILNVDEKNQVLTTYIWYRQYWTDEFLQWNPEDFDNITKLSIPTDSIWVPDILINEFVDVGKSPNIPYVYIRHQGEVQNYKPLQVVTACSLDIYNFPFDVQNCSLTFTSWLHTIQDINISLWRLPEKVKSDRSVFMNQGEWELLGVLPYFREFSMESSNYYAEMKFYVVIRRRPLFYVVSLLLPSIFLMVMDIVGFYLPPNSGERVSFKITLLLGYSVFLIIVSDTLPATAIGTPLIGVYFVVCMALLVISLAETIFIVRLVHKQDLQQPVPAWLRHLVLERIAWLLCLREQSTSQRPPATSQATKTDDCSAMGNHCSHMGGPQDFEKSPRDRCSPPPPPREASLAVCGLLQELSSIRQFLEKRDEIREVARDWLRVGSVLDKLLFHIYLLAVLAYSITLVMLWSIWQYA
Particulars: Compound concentration 10.0 uM.

The target in experiment [6] is D(1A) dopamine receptor (Homo sapiens) (UniProt P21728). Particulars: Compound concentration 10.0 uM.
Experiment [7] addresses D(2) dopamine receptor (Homo sapiens) (UniProt P14416). Particulars: Compound concentration 10.0 uM.
Experiment [8] addresses Sodium-dependent noradrenaline transporter (Homo sapiens) (UniProt P23975). The conditions noted are these: Compound concentration 10.0 uM.
Experiment [9] has as its target Sodium-dependent dopamine transporter (Homo sapiens, UniProt Q01959). Particulars: Compound concentration 10.0 uM.
The target of experiment [10] is Alpha-1B adrenergic receptor (Homo sapiens) (UniProt P35368). Particulars: Compound concentration 10.0 uM.
Experiment [11] deals with Alpha-2B adrenergic receptor (Homo sapiens) (UniProt P18089). Particulars: Compound concentration 10.0 uM.
For experiment [12], the target named is Alpha-2C adrenergic receptor (Homo sapiens) (UniProt P18825). The conditions noted are these: Compound concentration 10.0 uM.
Experiment [13] has as its target Beta-1 adrenergic receptor (Homo sapiens) (UniProt P08588). Particulars: Compound concentration 10.0 uM.
The target in experiment [14] is Beta-2 adrenergic receptor (Homo sapiens) (UniProt P07550). The conditions noted are these: Compound concentration 10.0 uM.
The target of experiment [15] is T3, Muscarinic acetylcholine receptor M1 (Homo sapiens) (UniProt P11229).
T3 sequence (whole entry): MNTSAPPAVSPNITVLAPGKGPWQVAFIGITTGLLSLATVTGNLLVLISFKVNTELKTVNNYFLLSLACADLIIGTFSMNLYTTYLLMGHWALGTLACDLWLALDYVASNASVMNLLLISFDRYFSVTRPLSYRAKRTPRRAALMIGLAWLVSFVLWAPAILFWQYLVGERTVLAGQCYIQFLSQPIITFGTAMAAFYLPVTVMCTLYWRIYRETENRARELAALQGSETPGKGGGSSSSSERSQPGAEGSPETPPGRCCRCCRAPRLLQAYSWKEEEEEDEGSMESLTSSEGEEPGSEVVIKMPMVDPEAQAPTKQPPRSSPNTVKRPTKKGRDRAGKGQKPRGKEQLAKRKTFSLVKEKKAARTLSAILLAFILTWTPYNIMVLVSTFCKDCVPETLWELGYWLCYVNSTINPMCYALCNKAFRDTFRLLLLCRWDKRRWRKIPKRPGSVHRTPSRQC
The conditions noted are these: Compound concentration 10.0 uM.

For experiment [16], the target named is T4, Muscarinic acetylcholine receptor M2 (Homo sapiens) (UniProt P08172).
T4 sequence (whole entry): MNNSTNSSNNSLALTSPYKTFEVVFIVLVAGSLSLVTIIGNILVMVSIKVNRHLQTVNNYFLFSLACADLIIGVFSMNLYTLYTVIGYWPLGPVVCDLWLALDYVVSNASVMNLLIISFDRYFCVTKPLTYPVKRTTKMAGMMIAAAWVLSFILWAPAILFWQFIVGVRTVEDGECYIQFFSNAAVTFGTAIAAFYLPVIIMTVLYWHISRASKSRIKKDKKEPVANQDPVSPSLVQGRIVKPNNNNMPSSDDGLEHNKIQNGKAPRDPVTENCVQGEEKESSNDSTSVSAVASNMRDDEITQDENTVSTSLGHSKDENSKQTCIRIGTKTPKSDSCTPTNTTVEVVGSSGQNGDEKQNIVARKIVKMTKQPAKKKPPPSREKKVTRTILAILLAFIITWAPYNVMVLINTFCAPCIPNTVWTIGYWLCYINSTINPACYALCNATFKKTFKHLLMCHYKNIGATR
Particulars: Compound concentration 10.0 uM.

The target in experiment [17] is GABA-A receptor; anion channel (Rattus norvegicus) (UniProt O09028+P15431+P18506+P18508+P19969+P20236+P23574+P23576+P28471+P28473+P30191+P62813+P63079+P63138+Q91ZM7+Q9ES14). Particulars: Compound concentration 10.0 uM.
The species named for experiment [18] is Rattus norvegicus. Particulars: Compound concentration 10.0 uM.
The target of experiment [19] is Alpha-1D adrenergic receptor (Homo sapiens) (UniProt P25100). Particulars: Compound concentration 10.0 uM.
The target of experiment [20] is Sigma non-opioid intracellular receptor 1 (Homo sapiens) (UniProt Q99720). The conditions noted are these: Compound concentration 10.0 uM.

The IC50 is the concentration at which inhibition is half-maximal. A word on the inhibition: it is the drop in the measured response relative to a control, in per cent.

Chain of 5-hydroxytryptamine receptor 2C (Homo sapiens) (P28335 whole entry): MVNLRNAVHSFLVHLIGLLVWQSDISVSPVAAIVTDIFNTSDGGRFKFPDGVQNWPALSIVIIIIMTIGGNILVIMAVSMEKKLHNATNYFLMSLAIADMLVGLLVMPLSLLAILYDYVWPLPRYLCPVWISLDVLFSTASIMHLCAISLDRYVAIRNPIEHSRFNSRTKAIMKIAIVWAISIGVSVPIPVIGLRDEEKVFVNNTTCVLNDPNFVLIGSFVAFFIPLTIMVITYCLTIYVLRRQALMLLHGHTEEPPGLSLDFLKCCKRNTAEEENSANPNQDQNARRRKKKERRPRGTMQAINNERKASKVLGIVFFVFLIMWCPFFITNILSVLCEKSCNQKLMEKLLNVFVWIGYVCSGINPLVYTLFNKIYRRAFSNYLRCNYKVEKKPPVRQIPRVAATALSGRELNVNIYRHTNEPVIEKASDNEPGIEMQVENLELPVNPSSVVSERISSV
Chain of Sigma non-opioid intracellular receptor 1 (Homo sapiens) (Q99720 whole entry): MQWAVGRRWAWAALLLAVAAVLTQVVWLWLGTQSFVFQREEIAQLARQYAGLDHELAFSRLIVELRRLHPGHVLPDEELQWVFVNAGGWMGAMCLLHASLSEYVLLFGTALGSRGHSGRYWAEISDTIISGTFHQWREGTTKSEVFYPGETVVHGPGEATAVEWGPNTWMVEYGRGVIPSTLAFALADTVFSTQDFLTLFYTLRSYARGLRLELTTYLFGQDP
Chain of Alpha-2C adrenergic receptor (Homo sapiens) (P18825 whole entry): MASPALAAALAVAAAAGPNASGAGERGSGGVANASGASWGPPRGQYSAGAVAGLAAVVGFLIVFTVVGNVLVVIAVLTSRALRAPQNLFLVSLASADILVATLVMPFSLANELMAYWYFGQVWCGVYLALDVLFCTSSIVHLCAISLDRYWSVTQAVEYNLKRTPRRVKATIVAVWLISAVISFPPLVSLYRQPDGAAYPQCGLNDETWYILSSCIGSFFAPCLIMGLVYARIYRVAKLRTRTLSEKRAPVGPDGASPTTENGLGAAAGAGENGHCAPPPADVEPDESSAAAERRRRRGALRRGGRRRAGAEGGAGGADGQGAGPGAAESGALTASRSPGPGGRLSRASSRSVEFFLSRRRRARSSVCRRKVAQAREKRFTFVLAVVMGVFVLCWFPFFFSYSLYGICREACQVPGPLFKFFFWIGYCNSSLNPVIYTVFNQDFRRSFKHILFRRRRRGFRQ
Chain of Beta-1 adrenergic receptor (Homo sapiens) (P08588 whole entry, looked up): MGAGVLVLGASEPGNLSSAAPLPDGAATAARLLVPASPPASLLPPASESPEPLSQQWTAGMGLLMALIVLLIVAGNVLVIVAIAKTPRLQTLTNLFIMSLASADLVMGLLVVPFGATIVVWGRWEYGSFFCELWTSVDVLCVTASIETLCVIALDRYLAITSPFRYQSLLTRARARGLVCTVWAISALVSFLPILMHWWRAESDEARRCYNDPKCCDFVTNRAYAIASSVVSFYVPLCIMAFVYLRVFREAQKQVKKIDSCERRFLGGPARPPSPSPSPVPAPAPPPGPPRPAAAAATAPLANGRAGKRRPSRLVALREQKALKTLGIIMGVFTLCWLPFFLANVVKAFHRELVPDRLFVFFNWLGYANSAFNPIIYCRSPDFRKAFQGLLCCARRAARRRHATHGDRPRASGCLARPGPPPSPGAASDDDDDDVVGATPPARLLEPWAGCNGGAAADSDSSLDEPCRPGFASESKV
Chain of 5-hydroxytryptamine receptor 2A (Homo sapiens) (P28223 whole entry): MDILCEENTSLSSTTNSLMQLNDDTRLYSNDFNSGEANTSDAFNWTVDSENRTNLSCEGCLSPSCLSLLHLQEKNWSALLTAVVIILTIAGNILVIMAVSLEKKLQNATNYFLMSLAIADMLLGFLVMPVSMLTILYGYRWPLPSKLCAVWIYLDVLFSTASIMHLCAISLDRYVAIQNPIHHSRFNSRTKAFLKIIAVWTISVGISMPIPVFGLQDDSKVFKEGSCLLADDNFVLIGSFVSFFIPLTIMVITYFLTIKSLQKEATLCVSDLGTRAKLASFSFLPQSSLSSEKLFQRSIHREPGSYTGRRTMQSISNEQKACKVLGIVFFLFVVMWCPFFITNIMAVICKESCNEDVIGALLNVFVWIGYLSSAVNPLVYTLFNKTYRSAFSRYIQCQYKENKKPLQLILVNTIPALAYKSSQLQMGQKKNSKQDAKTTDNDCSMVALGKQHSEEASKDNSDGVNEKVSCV
Chain of D(2) dopamine receptor (Homo sapiens) (P14416 whole entry): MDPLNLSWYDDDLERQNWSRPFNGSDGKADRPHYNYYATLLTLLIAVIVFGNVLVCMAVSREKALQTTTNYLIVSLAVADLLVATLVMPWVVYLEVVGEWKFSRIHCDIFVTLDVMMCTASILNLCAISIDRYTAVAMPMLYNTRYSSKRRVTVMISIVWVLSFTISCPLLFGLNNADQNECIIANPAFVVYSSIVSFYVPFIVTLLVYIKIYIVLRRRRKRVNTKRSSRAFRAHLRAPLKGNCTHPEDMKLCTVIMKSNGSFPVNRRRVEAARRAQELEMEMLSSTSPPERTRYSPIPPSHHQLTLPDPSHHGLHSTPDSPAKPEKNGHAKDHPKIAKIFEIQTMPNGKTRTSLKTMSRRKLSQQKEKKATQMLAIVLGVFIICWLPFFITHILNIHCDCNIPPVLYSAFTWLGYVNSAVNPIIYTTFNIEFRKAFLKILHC
Chain of Beta-2 adrenergic receptor (Homo sapiens) (P07550 whole entry, looked up): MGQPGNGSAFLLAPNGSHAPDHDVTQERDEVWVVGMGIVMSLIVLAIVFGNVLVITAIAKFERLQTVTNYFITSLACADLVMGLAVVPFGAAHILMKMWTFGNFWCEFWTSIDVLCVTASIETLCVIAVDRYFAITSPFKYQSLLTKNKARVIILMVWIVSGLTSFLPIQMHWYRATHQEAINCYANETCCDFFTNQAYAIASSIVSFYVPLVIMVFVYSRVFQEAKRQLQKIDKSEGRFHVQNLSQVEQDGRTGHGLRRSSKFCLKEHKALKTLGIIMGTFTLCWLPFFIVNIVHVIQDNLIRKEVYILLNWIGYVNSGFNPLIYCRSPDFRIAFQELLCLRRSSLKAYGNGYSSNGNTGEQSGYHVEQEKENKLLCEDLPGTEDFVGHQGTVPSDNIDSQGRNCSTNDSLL
Chain of Alpha-1D adrenergic receptor (Homo sapiens) (P25100 whole entry): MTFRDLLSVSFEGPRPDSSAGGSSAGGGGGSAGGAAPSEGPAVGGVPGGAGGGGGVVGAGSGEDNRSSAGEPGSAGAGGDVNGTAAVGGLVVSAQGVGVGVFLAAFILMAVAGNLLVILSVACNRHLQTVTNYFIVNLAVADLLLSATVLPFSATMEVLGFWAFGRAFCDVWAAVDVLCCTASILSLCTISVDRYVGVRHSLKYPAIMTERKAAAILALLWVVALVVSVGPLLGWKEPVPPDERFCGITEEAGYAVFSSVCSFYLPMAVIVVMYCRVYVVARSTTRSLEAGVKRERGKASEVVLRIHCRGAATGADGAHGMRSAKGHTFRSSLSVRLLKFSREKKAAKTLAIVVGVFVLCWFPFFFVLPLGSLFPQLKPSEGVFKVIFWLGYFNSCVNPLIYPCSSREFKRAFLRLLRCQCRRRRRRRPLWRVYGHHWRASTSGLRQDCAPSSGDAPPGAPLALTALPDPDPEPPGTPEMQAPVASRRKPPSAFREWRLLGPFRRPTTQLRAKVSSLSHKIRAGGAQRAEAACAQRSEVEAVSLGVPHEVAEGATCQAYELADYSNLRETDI
Chain of Alpha-1B adrenergic receptor (Homo sapiens) (P35368 whole entry): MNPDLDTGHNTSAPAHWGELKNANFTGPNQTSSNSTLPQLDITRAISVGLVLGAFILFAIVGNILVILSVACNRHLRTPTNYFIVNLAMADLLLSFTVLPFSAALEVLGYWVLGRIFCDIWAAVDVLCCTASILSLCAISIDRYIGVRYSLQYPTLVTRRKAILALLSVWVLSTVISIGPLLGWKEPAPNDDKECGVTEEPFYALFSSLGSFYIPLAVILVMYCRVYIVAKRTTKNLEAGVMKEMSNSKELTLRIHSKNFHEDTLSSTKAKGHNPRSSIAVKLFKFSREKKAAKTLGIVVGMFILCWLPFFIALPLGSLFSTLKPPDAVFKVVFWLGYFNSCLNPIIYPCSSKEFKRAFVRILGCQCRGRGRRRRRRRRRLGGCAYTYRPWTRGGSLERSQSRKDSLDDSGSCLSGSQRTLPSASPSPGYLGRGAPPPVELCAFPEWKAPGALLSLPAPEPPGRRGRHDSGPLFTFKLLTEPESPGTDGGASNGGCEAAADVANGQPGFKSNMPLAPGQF
Chain of Alpha-2B adrenergic receptor (Homo sapiens) (P18089 whole entry): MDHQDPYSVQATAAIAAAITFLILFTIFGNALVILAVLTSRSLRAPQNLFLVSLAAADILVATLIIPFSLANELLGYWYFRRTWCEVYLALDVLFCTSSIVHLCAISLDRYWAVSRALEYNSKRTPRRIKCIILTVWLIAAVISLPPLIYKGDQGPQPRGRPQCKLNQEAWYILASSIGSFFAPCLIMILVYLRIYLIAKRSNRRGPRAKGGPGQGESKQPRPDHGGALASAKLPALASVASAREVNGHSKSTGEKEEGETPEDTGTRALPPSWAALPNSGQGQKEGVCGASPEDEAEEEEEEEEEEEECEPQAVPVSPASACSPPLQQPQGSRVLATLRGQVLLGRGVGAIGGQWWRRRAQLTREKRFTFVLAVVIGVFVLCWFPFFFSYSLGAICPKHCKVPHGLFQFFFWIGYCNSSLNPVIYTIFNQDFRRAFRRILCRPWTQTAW
Chain of D(1A) dopamine receptor (Homo sapiens) (P21728 whole entry): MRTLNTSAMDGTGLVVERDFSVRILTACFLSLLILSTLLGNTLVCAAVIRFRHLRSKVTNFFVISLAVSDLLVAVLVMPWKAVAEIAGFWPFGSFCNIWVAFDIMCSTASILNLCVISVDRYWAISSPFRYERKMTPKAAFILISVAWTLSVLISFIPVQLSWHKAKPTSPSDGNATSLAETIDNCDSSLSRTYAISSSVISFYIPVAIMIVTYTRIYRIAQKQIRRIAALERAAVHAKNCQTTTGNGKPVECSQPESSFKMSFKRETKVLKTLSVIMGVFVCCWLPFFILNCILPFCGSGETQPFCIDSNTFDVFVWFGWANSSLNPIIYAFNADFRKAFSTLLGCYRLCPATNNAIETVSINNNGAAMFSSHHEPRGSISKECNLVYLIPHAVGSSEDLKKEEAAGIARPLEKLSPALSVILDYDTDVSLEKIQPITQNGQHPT

On to `CCOc1ccc(S(=O)(=O)Nc2ccc(Cl)cc2C#Cc2cnc(C(=O)O)cc2OC)c2ncccc12` [MSC-4381], for which the IC50 in [1] came to 0.638 µM. Moreover, the inhibition is 18.6% in experiment [2]; -0.22% in experiment [3]; 24.4% in experiment [4]; 9.43% in experiment [5]; 8.58% in experiment [6]; 9.9% in experiment [7]. The inhibition in experiment [8] was 34.4%; in experiment [9], 23.4%; in experiment [10], -9.4%; in experiment [11] it was 15%; in [12] it was 27.7%; in experiment [13], 18.8%. The inhibition in experiment [14] is 14.8%; in experiment [15], 16.3%; in [16], -0.58%; in experiment [17], 0.15%; in experiment [18], 45%; in experiment [19] it was 20.8%. Further, the inhibition in experiment [20] was -6.66%.
With `COc1cc(C(=O)O)ncc1C#Cc1ccccc1NS(=O)(=O)c1cccc2c(N(C)C)ccnc12` [MSC-0516], the IC50 in [1] was > 4 µM (not active). For the same compound, the inhibition in experiment [2] was 40.2%; in [3], 9.61%; in experiment [4] it was 7.95%; in experiment [5] it was 1.13%; in experiment [6] it was 17.8%; in experiment [7] it was -0.32%. Besides, the inhibition was -7.14% in experiment [8]; 80.3% in experiment [9]; 16.9% in [10]; 8.34% in [11]; 13% in [12]; 16.7% in experiment [13]. For the same compound, the inhibition in experiment [14] was -2.19%; in experiment [15] it was 25%; in experiment [16], 2.62%; in experiment [17] it was 25.6%; in experiment [18], 60.4%; in [19] it was 1.48%. Besides, in experiment [20], the inhibition is 18.7%.
